# Data: article PMC12406664, “New derivatives of 6-nitrocoumarin-3-thiosemicarbazone exhibit improved antiparasitic activity in the placenta against Trypanosoma cruzi and Toxoplasma gondii” (Antimicrobial Agents and Chemotherapy, 2025)
# Entries after “also recorded” stand apart in the source; their conditions may differ.
# Tests used:
# [1] = system: intracellular amastigotes of T. cruzi (Tulahuen β-gal); test: Intracellular amastigotes, β-galactosidase-expressing T. cruzi in LLC-MK2 cells (CPRG); assay type: cell-based, Trypanosoma cruzi; conditions: 72 h
# Method: The effect of the compounds over intracellular amastigotes of a β-galactosidase-expressing recombinant strain of T. cruzi (Tulahuen β-gal) was also evaluated (see Table S4 at https://doi.org/10.5281/zenodo.15694236). […] Similarly, intracellular anti-T. gondii tachyzoite was assessed using quantitative immunocytochemistry targeting the parasite’s P30 protein (see Table S4 at https://doi.org/10.5281/zenodo.15694236). […] The complete absence of activity of hydroxylated compounds against intracellular forms of both parasites was confirmed, which could be attributed to their inability to permeate mammalian cell membranes.
# LLC-MK2 cells (2 × 10^4/well), suspended in 200 µL DMEM with 10% FBSi and 1% antibiotics (penicillin-streptomycin), were placed in each well of a 96-well plate and incubated for 24 hours. Subsequently, the culture medium was removed, and cell monolayers were infected by placing five trypomastigotes per cell in 200 µL of DMEM 2 for 24 hours under the same incubation conditions. After infection, the culture medium was removed, and cells were washed 4 times with 1× sterile PBS. Finally, 10 twofold serial dilutions (200 µM to 0.39 µM concentration range) of each compound, in DMEM 2 without phenol red, were placed in duplicate wells in a 96-well plate and incubated for 72 hours. […] Absorbance at 600 nm was read 4 hours later, in a multimodal GloMax microplate reader (Promega).
# [2] = system: T. gondii tachyzoites, RH strain; test: Resazurin viability assay on free T. gondii tachyzoites; assay type: cell-based, Toxoplasma gondii
# Description: Untreated parasites served as a negative control.
# [3] = Lipophilicity by reversed-phase TLC (RM); conditions: reverse phase-C18, DMSO/phosphate buffer pH 7.4 (70:30 vol/vol), RM = log[(1/Rf) – 1]
# Method: Lipophilicity was studied by reversed-phase TLC experiments. Precoated TLC plates SIL RP-18W/UV254 were used and eluted with DMSO/physiological serum (70:30, vol/vol). Stock solutions were prepared in pure DMSO (Aldrich) prior to use. The plates were developed in a closed chromatographic tank, dried, and the spots were located under UV light. The Rf values were averaged from three determinations and converted into RM values via the relationship: RM = log [(1/Rf)−1]
# [4] = system: T. cruzi trypomastigotes, Dm28 strain; test: Resazurin viability assay on free T. cruzi trypomastigotes; conditions: Trypanosoma cruzi, 24 h, read-out: Viability T. cruzi (%)
# Method: The reduction of resazurin sodium salt was used to determine the trypanocidal and toxoplasmicidal activity of the 6-nitrocoumarin-thiosemicarbazone hybrids 1–8. For this, treatment with the compounds was carried out for 24 h at a concentration of 100 µM.
# NFX was used as a positive control for T. cruzi, and PMN was used for T. gondii. Untreated parasites served as a negative control. […] Subsequently, parasites with their respective conditions were transferred to a 96-well white fluorescence reading plate, adding resazurin at a final concentration of […] with 0.8 mM phenazine. The plate was incubated for 3 hours at 37°C in a humidified atmosphere with 5% CO2, and fluorescence measurements were taken using a microplate reader (Thermo Scientific Varioskan Flash) at excitation wavelengths of 560 nm and emission wavelengths of 590 nm.
# [5] = Cyclic voltammetry, reduction potentials in DMSO (HDME, vs. Ag/AgCl); conditions: 2.00 V/s
# Method: Electrochemical studies were carried out on a Metrohm Autolab instrument model PGSTAT204, using dimethyl sulfoxide (DMSO) as the solvent (1 mM solutions), tetrabutylammonium perchlorate (0.1 M TBAP) as the supporting electrolyte, a hanging drop mercury electrode (HDME) as the working electrode, Ag/AgCl (3M KCl) as the reference electrode and a graphite rod as the counter electrode. All measurements were performed after bubbling with nitrogen (N2) for 10 minutes.
# [6] = system: T. gondii tachyzoites (strain RH); test: Intracellular ROS generation (DCF probe) in T. gondii; assay type: cell-based, Toxoplasma gondii; conditions: compound at IC50, menadione 20 µM, 40 minutes, vs untreated control
# Method: ROS detection was performed using the 2′,7′-dichlorodihydrofluorescein diacetate (DCFH2-DA) method ([45]). For the assay, Dm28c trypomastigotes and tachyzoites were seeded in 96-well plates at a density of 10⁶ parasites/mL. In contrast, BeWo cells were seeded at 5 × 10⁴ cells per well, using the previously described culture medium.
# After incubation with 20 µM DCFH2-DA for 15 minutes at 37°C, the parasites were centrifuged at 3,500 × g, washed twice with PBS (pH 7.4), and subsequently transferred to Nunc 96-well fluorescence plates. Meanwhile, after 24 hours of incubation at 37°C and 5% CO₂, the culture medium of BeWo cells was replaced, and 20 µM DCFH2-DA solution was added, followed by a 15 minute incubation at 37°C. The cells were then washed with PBS at pH 7.4. As a positive control, 20 µM menadione was used, while the negative control consisted of culture medium without compounds.
# Over time, the area under the fluorescence increase curve was determined using Origin 8 software (version 9.2), with normalization relative to the control. The results correspond to three independent experiments' mean ± standard deviation (SD).
# [7] = system: T. gondii tachyzoites (strain RH); test: ESR spin trapping with DMPO in T. gondii; assay type: cell-based, Toxoplasma gondii; conditions: compound about 1 mM, menadione 20 µM
# Method: (§1) Each tested hybrid was dissolved in spectroscopy-grade DMSO at an approximate concentration of 1 mM and added to a mixture containing Trypanosoma cruzi (Dm28c strain) or Toxoplasma gondii at a density of 50 × 10⁶ trypomastigotes or tachyzoites per mL, along with DMPO at a final concentration of 250 mM. Menadione (20 µM) was used as a positive control.
# (§2) All spectra were acquired on the same scale after 15 scans.
# [8] = system: T. cruzi trypomastigotes (strain Dm28); test: ESR spin trapping with DMPO in T. cruzi; assay type: cell-based, Trypanosoma cruzi; conditions: compound about 1 mM, menadione 20 µM
# Method: as §1, §2
# [9] = Cytotoxicity on cells (resazurin), BeWo; assay type: cell-based; conditions: human, BeWo trophoblast cells
# Description: (§3) Triton X-100 was used as a positive control, and untreated cells served as a negative control. In addition, the maximum concentration of DMSO was used as a control for the method. […] The obtained values were expressed as IC50([88]).
# [10] = system: T. gondii (RH strain) in BeWo cells; test: Infection of BeWo cells by T. gondii, infected cells counted by fluorescence microscopy; assay type: cell-based, Toxoplasma gondii; conditions: compound at IC50, untreated control 64 ± 6
# Method: The effect of the compounds on the infection of BeWo trophoblast cells by T. gondii and T. cruzi was assessed. The DNA of T. gondii and T. cruzi was quantified in infected BeWo cells treated for 24 hours under two conditions: co-incubation and post-infection treatment. […] Fluorescence microscopy was employed to quantify the number of infected cells. The resulting images were analyzed using ImageJ software to count both infected and uninfected cells.
# For the microscopic analysis of BeWo cells infected with T. cruzi, the cells were washed with PBS to remove the supernatant, fixed with 90% cold methanol, rewashed with PBS, and incubated for 5 minutes with 1 µg/mL—1 4,6-diamidino-2-phenylindole (DAPI) (Molecular Probes). To analyze BeWo cells infected with T. gondii, cells were fixed with 90% cold methanol, washed with PBS containing 0.05% Tween, and blocked using 3% BSA for 1 hour at 37°C. Then, they were incubated with the primary monoclonal antibody Toxoplasma gondii (TP3): sc-52255 at a dilution of 1:500 with 1% BSA overnight at 4°C. Afterward, the samples were incubated with the FITC anti-mouse IgG secondary antibody at a dilution of 1:100 with 1% BSA for 1 hour at 37°C. Finally, they were washed with PBS containing 0.05% Tween and incubated for 5 minutes with DAPI. Subsequently, the sections were mounted in Vectashield (ScyTek ACA). Sections for the analysis of cell infection by T. cruzi and T. gondii were observed under an epifluorescence microscope (Motic BA 310), and images were captured with a Motic 5 camera. T. cruzi amastigotes were identified by their morphology, including nuclear size and the presence of a kinetoplast, and were analyzed and quantified using ImageJ. At least 500 cells per condition were analyzed, and infected and non-infected cells were counted for every 100 cells ([35], [70]).
# (§4) Cells or HPE were exposed to parasites. […] The following treatment conditions were used in both infection models. […] Untreated cells or HPE served as a negative control, and the compounds’ activity was compared with the reference drugs (NFX and PMN).
# [11] = Cytotoxicity on cells (resazurin), EA.hy926; assay type: cell-based; conditions: human, EA.hy926 endothelial cells
# Description: as §3
# [12] = system: T. gondii (RH strain) in HPE; test: T. gondii DNA load in infected human placental explants (HPE) by real-time qPCR; assay type: cell-based, Toxoplasma gondii; conditions: IC50 concentration
# Method: The effect on HPE infection of compounds 1 and 7 by Toxoplasma gondii and Trypanosoma cruzi, respectively, was evaluated. To do this, the DNA of the T. gondii or T. cruzi parasite was quantified by infecting HPE for 24 hours under treatment conditions of co-incubation of compounds with the parasite at the same time of infection, and with a 24 hour post-infection treatment. The compound’s IC50 concentration value previously obtained under both conditions was used.
# Term human placentas were obtained from uncomplicated pregnancies via scheduled cesarean sections. Each patient provided informed consent for the experimental use of the placenta, and the study was approved by the ethics committee of Hospital San José, Servicio Salud Metropolitano Norte (N° 013/2022). Exclusion criteria for placental use included significant fetal anomalies, placental tumors, intrauterine infection, positive serology for Chagas disease, obstetric pathology, and any other maternal disease. Donor patients tested negative for T. gondii IgG/IgM antibodies. Organs were collected in sterile, cold PBS and processed within 30 minutes after delivery. Maternal and fetal surfaces of each placenta were discarded, and the villous tissue from the central part of the placental cotyledons was isolated. […] All the experiments were performed in triplicate in at least three different placentas.
# Cells or HPE were exposed to parasites. […]
# Subsequently, cells were exposed to parasites at a 1:1 ratio (cell: parasite) for 24 hours. […] The resulting DNA was quantified using a μDrop Plate DNA quantification system on the Varioskan Flash multimode reader (Thermo Scientific, USA). […]
# (§5) Amplification was carried out using the CFX96 Touch Deep Well Real-Time PCR Detection System (Biorad, California, USA) with the following cycling program: initial denaturation at 95°C for 3 min, followed by 40 cycles of denaturation at 95°C for 5 s, annealing at 60°C for 30 s, and a dissociation stage ranging from 60°C to 95°C. The relative quantification analysis of the results was expressed as RQ values using the comparative […] (∆∆Ct) ([80]).
# [13] = system: T. gondii (RH strain) in BeWo cells; test: T. gondii DNA load in infected BeWo cells by real-time qPCR; assay type: cell-based, Toxoplasma gondii; conditions: IC50 concentration
# Method: as §4
# Subsequently, cells were exposed to parasites at a 1:1 ratio (cell: parasite) for 24 hours. Finally, the cells were washed with PBS and harvested using trypsin. For the parasitic DNA load in the ex vivo infection model, HPE was incubated in 24-well plates and exposed to parasites at a concentration of 10^5 parasites/mL for 24 hours. Finally, they were washed with PBS and homogenized using the ultraturrax homogenizer OMNI TipTM. Genomic DNA was extracted from BeWo cells or HPE using the Wizard Genomic DNA Purification Kit (Promega, USA) following the manufacturer’s instructions. The resulting DNA was quantified using a μDrop Plate DNA quantification system on the Varioskan Flash multimode reader (Thermo Scientific, USA). For the amplification of human DNA and parasitic DNA, three pairs of primers specific for human GAPDH (hGADPH), T. cruzi satellite DNA, and T. gondii B1 gene DNA were used (Table 7). Each reaction mixture contained 0.5 µL of 10 nM of each primer (Forward and reverse), 1 ng of DNA from T. cruzi samples, 10 ng of DNA from T. gondii samples, 10 µL of SensiFASTTM SYBR Hi-ROX kit (Bioline, Heidelberg, Baden Württemberg, Germany), and ultrapure water (Sigma-Aldrich, St. Louis, MO, USA) for a total of 20 µL.
# as §5
# [14] = system: HPE exposed to T. gondii tachyzoites; test: Histopathology of HPE infected with T. gondii; assay type: cell-based, human; conditions: IC50 concentration
# Description: as §4
# [15] = system: human placental explants (HPE); test: Histopathology of uninfected HPE exposed to the compounds alone; conditions: explants incubated only with the compound, 24 h, IC50 concentration
# Method: The HPE was fixed in 10% formaldehyde in 0.1 M phosphate buffer (pH 7.3) for 24 h, dehydrated in alcohol, clarified in xylene, embedded in paraffin, and sectioned at 3 µm. Paraffin histological sections were stained with hematoxylin-eosin for routine histological analysis, Picro Sirius red, and trichromic Masson for collagen histochemistry. Sections for the histological analysis were observed under an optical microscope (Leica DM500) and images were captured with a Leica ICC50 W camera ([7], [91]).
smiles,measurement,setting,value
"C/C(=N\NC(=S)Nc1ccccc1)c1cc2cc([N+](=O)[O-])ccc2oc1=O [Compound 8, (E)−2-(1-(6-nitro-2-oxo-2H-chromen-3-yl)ethylidene)-N-phenylhydrazine-1-carbothioamide]",activity over intracellular amastigotes,[1],most active
same,viability at 100 µM,"[2]; Toxoplasma gondii, tachyzoites RH, 100 µM, 24 h",86.2 ± 14.4%
same,Lipophilicity (RM),[3],0.20
same,viability at 100 µM,[4],45.2 ± 6.7%
same,E(pIIa),[5]; anodic peak IIa,−0.86 V
same,E(pIIIc),"[5]; cathodic peak IIIc, hydroxylamine formation",−1.39 V
same,E(pIIc),"[5]; cathodic peak IIc, nitro anion radical couple",−0.94 V
same,E(pIVc),"[5]; cathodic peak IVc, imine reduction",−1.68 V
"CC1=CC(=O)c2ccccc2C1=O [menadione, reference compound]",ROS generation (DCF fluorescence),[6],significant increase in ROS production
same,radical species detected by ESR spin trapping (DMPO),[7],formation of multiple signals
same,radical species detected by ESR spin trapping (DMPO),[8],triplet (aN ~15.5 G) corresponding to a DMPO-derived oxidized paramagnetic compound
"CCc1nc(N)nc(N)c1-c1ccc(Cl)cc1 [PMN, pyrimethamine, reference compound]",CC50 at 24 h,[9],125.5 ± 0.8 µM
same,IC50,"[2]; Toxoplasma gondii, extracellular tachyzoites RH strain, 24 h, resazurin",20.8 ± 1.1 µM
same,SI = BeWo CC50/parasite IC50,[2]; parasite T. gondii,6.03
same,SI = EA.hy926 CC50/parasite IC50,[2]; parasite T. gondii,13.8
same,Infected cells (%),[10]; co-incubation 24 h,19 ± 2%
same,Infected cells (%),[10]; post-infection treatment 24 h,16 ± 4%
same,CC50 at 24 h,[11],287.5 ± 0.9 µM
same,effect on parasite DNA load,[12]; 24 hour post-infection treatment,decreased; also recorded: effectively reduced the explants’ parasitic load
same,effect on parasite DNA load,[12]; co-incubation,effectively reducing the parasitic load
same,effect on parasite DNA load,[13]; co-incubation,more significant
same,effect on parasite DNA load,[13]; post-infection treatment,significantly reduced the parasite DNA load
same,tissue damage in infected HPE (histopathology),[14]; co-incubation,without causing tissue damage
same,tissue damage in infected HPE (histopathology),[14]; post-infection treatment,decreased the induced tissue damage
same,tissue damage caused by the compound itself in HPE,[15],neither compound induced tissue damage
